According to US9139502B2, “Use of an urushiol compound in preparation of pharmaceutical compositions for inhibiting Smad3 phosphorylation” (Southern Hospital, Southern Medical University, priority 2013, dated 2015):

What was measured:
α-SMA = α-SMA expression in UUO kidney tissue (real-time PCR, immunohistochemistry, Western blot); format: in vivo, rat; settings: UUO rats, GQ-5 40 mg/kg daily i.p., sacrificed day 14
Experimental: (§1) Male Sprague-Dawley rats were randomized into 4 groups (n=6 in each group): (1) sham operated rats; (2) UUO rats; (3) UUO+GQ-5 d1 rats; (4) UUO+GQ-5 d7 rats.
(§2) GQ-5 was dissolved in 5% propylene glycol.
(§3) (3) UUO+GQ-5 d1 rats: daily intraperitoneal injection of GQ-5 (40 mg/kg body weight) right after UUO;
(§4) (4) UUO+GQ-5 d7 rats: daily intraperitoneal injection of GQ-5 (40 mg/kg body weight) 7 days after UUO.
(§5) UUO was performed using an established protocol as described. GQ-5 was dissolved in 5% propylene glycol. Rats were administrated with GQ-5 as described before. All the rats were sacrificed 14 days after UUO. HE staining, Masson trichrome staining were performed to examine the renal tissue injury, and Real-time PCR analyses, immunohistochemical staining, and Western blot analyses were performed to examine α-SMA, collagen I and fibronectin expression in kidney tissue

Smad4 = test: Western blot of Smad4 expression in vitro; format: cell-based, rat; settings: NRK52E and NRK49F cells, GQ-5 2.5 nM pre-treated 1 h, TGF-β1 10 ng/ml 1 h
Experimental: (§6) NRK52E and NRK49F cells were cultured in DMEM-Ham's medium (Gibco, Life Techologies, NY, USA) supplemented with 10% fetal bovine serum (Gibco, Life Techologies, NY, USA). The cells reached at approximately 50% confluence were used for in vitro experiments. Cells were serum-starved for 12 h, and randomized into 4 groups: (1) Controls; (2) GQ-5 only; (3) TGF-β1 only; (4) TGF-β1+GQ-5
(§7) (2) GQ-5 only: pre-treated with GQ-5 (2.5 μM) for 1 h, followed with DMEM for 1 h
(§8) (3) TGF-β1 only: pre-treated with DMSO (0.1%) for 1 h, followed with TGF-β1 (10 ng/ml) for 1 h
(§9) (4) TGF-β1+GQ-5: pre-treated with GQ-5 (2.5 nM) for 1 h, followed with TGF-β1 (10 ng/ml) for 1 h
(§10) GQ-5 was dissolved in DMSO. Cells were treated as described. cell lysates were immunoblotted with antibodies against Smad4, Smad7, phospho-p38, p38, phospho-PI3K, PI3K, phosphor-ERK, and ERK.

Smad3 phosphorylation = test: Western blot of TGF-β1-induced Smad3 phosphorylation in vitro; format: cell-based, rat
Experimental: (§11) NRK52E and NRK49F cells were cultured in DMEM-Ham's medium supplemented with 10% fetal bovine serum. The cells reached at approximately 50% confluence were used for in vitro experiments. Cells were serum-starved for 12 h, and randomized into 6 groups: (1) Controls; (2) GQ-5 only; (3) TGF-β1 only; (4) TGF-β1+GQ-5 0.1 μM; (5) TGF-β1+GQ-5 0.5 μM; (6) TGF-β1+GQ-5 2.5 μM.
as §7, §8
(4) TGF-β1+GQ-5 0.1 μM: pre-treated with GQ-5 (0.1 μM) for 1 h, followed with TGF-β1 (10 ng/ml) for 1 h
(5) TGF-β1+GQ-5 0.5 μM: pre-treated with GQ-5 (0.5 μM) for 1 h, followed with TGF-β1 (10 ng/ml) for 1 h
(6) TGF-β1+GQ-5 2.5 μM: pre-treated with GQ-5 (2.5 μM) for 1 h, followed with TGF-β1 (10 ng/ml) for 1 h.
GQ-5 was dissolved in DMSO. Cells were treated as described. Cell lysates were immunoblotted with antibodies against phospho-Smad3, Smad3, phospho-Smad2, Smad2.
NRK52E cells were cultured in DMEM-Ham's medium supplemented with 10% fetal bovine serum. The cells reached at approximately 50% confluence were used for in vitro experiments. Cells were serum-starved for 12 h, and randomized into 8 groups: (1) Controls; (2) GQ-5 only; (3) TGF-β1 0.5 h; (4) TGF-β1 0.5 h+GQ-5; (5) TGF-β1 1.0 h; (6) TGF-β1 1.0 h+GQ-5; (7) TGF-β1 3.0 h; (8) TGF-β1 3.0 h+GQ-5;
(4) TGF-β1 0.5 h+GQ-5: pre-treated with GQ-5 (2.5 μM) for 1 h, followed with TGF-β1 (10 ng/ml) for 0.5 h
(6) TGF-β1 1.0 h+GQ-5: pre-treated with GQ-5 (2.5 μM) for 1 h, followed with TGF-β1 (10 ng/ml) for 1.0 h
(8) TGF-β1 3.0 h+GQ-5: pre-treated with GQ-5 (2.5 μM) for 1 h, followed with TGF-β1 (10 ng/ml) for 3.0 h
GQ-5 was dissolved in DMSO. Cells were treated as described. Cell lysates were immunoblotted with antibodies against phospho-Smad3, Smad3, phospho-Smad2, and Smad2.

Smad7 = test: Western blot of Smad7 expression in vitro; format: cell-based, rat; settings: NRK52E and NRK49F cells, GQ-5 2.5 nM pre-treated 1 h, TGF-β1 10 ng/ml 1 h
Experimental: as §6, §7, §8, §9, §10

UUO rats = test: Renal interstitial fibrosis after UUO (HE and Masson trichrome staining); format: in vivo, rat; settings: GQ-5 40 mg/kg daily i.p. initiating right after or 7 days after operation, sacrificed day 14
Experimental: as §1, §2, §3, §4, §5

fibronectin = test: Western blot of TGF-β1-induced fibronectin protein in vitro; format: cell-based, rat; settings: NRK 52E and NRK 49F cells, GQ-5 0.1-2.5 μM pre-treated 1 h, TGF-β1 10 ng/ml 48 h
Experimental: as §11, with “μM” for “μM.”
(2) GQ-5 only: pre-treated with GQ-5 (2.5 μM) for 1 h, followed with DMEM for 48 h
(3) TGF-β1 only: pre-treated with DMSO for 1 h, followed with TGF-β1 (10 ng/ml) for 48 h
(4) TGF-β1+GQ-5 0.1 μM: pre-treated with GQ-5 (0.1 μM) for 1 h, followed with TGF-β1 (10 ng/ml) for 48 h
(5) TGF-β1+GQ-5 0.5 μM: pre-treated with GQ-5 (0.5 μM) for 1 h, followed with TGF-β1 (10 ng/ml) for 48 h
(6) TGF-β1+GQ-5 2.5 μM: pre-treated with GQ-5 (2.5 μM) for 1 h, followed with TGF-β1 (10 ng/ml) for 48 h
GQ-5 was dissolved in DMSO. Cells were treated as described. Cells lysates were immunebloted with antibodies against α-SMA, collagen I and fibronectin.

## CCCCCC/C=C\CCCCCCCc1cccc(O)c1O [GQ-5, 3-[(Z)-pentadec-8-enyl]catechol]
α-SMA
  up-regulation of α-SMA at both mRNA and protein level: significantly inhibited
Smad4
  protein expression of Smad4: did not affect
Smad3 phosphorylation; NRK52E and NRK49F cells, GQ-5 2.5 μM only
  inhibitory effect in the absence of TGF-β1 stimulation: almost undetectable
Smad3 phosphorylation; NRK52E and NRK49F cells, GQ-5 0.1, 0.5, 2.5 μM pre-treated 1 h, TGF-β1 10 ng/ml 1 h
  TGF-β1-induced Smad3 phosphorylation, dose dependence: attenuated TGF-β1-induced Smad3 phosphorylation in a dose-dependent manner
Smad3 phosphorylation; NRK52E cells, GQ-5 2.5 μM pre-treated 1 h, TGF-β1 10 ng/ml 0.5, 1.0, 3.0 h
  TGF-β1-induced Smad3 phosphorylation, time dependence: attenuated TGF-β1-induced Smad3 phosphorylation in a time-dependent manner
Smad7
  protein expression of Smad7: did not affect
UUO rats
  inflammatory cell infiltration: significantly reduced
  interstitial fibrosis score: significantly reduced
fibronectin
  TGF-β1-induced protein expression of fibronectin: significantly inhibited
